Source: patent US8344028B2, “Gamma-amino-butyric acid derivatives as GABAB receptor ligands” (XenoPort, Inc., priority 2009, dated 2013)

Each compound was assayed against GABAB receptor (Homo sapiens, UniProt Q9UBS5) (assay: GABAB receptor agonist or partial agonist activity by binding, electrophysiology, cAMP and/or Ca2+ assay methods (Examples 83-86)).
Assay type: cell-based
Description: An assay using rat cerebral cortex membranes was used to determine the affinity of GABAB receptor ligands for the GABAB receptor.
An assay buffer of 50 mM Tris pH 7.4 was prepared with 100 μM of isoguvacine, to block GABAA interactions. The assay buffer with isoguvacine was used for dilution of membranes, compounds, and radiolabel.
Rat cerebral cortex membranes were diluted in assay buffer at 1 mg/mL and aliquoted into a 96-well plate at 900 μL/well. Buffer or test compound were added at 20-times final concentration in the buffer at 50 μL/well. Membranes and test compounds or buffer were incubated for 10 min. at room temperature. Radiolableled [S—(R*,R*)]-[3-[[1-(3,4-dichlorophenyl)ethyl]amino]-2-hydroxypropyl](cyclohexylmethyl) phosphinic acid (CGP54626) was then added at 50 μL/well in the buffer at 1-10 nM concentration in 50 μl. […] The assay mixture was filtered using Brandell filtration apparatus and GFB filters, washed twice with 3 mL of 4° C., 50 mM Tris pH 7.4, buffer without isoguvacine. The filters were then dried at room temperature and the dried filters punched out and placed in individual vials. Three (3) mL of scintillation fluid was added to each vial and the radiolabel counted on the scintillation counter. The inverse amount of radiolabel was indicative of binding of a test compound to the GABAB receptor.
The following procedure was used to determine the level of intracellular cAMP. Recombinant HEK cells expressing the GABAB R1a2 receptor were used in the experiments. cAMP levels were measured using a cAMP XS^+ HitHunter™ Chemiluminescence Assay Kit (90-0075-02, GE Healthcare Biosciences Corp.). Cells were seeded overnight at 5,000 cells per well, in black, clear bottom 96-well plates. The following morning, cells were washed twice with 100 μL PBS per well. Forskolin was weighed out and dissolved in DMSO to a final concentration 100 mM. One-hundred (100) μM forskolin solutions were prepared in PBS with and without test compound at 1-times final concentration. Thirty (30) μL of the test solutions were added to the wells and incubated for 1 h at room temperature. The cAMP concentration was determined according to the protocol described in the cAMP assay kit, maintaining the plate at room temperature and in the dark. […] Each well was read for 6 seconds. The untransformed data was then analyzed.
The following procedure was used to determine the GABAB receptor agonist activity of a compound as reflected by activation of Ca^2+ signaling. HEK TREx cells expressing GABABR1a2 under tetracycline induction control, and Gqi chimeric protein (expressed constitutively), allowing GABABR coupling through the Ca^2+ signaling pathway were used in the experiments.
Cells were seeded in media containing tetracycline overnight at 100,000 cells/well, in black, clear-bottom, 96-well plates. The following morning, cells were washed twice with 100 μL HBSS buffer per well. Fluorescent Ca^2+ indicator dye was prepared using the materials and procedure described in the F362056 Fluo-4 NW Calcium Assay Kit (Invitrogen, Carlsbad, Calif.). Ten (10) mL of kit buffer and 100 μl of kit Probenecid were added to individual kit dye vials, and rolled back and forth several times to dissolve the dye. Cells were then loaded into the dye solution at 50 μL per well. The cells and dye were incubated for 30 min at 37° C., and then incubated for an additional 30 min at room temperature in the dark. Test compounds are dissolved in HBSS buffer at twice final concentration. Duplicate wells were used for each unique condition. Solution containing the test compound was added to the wells using a FLEXStation II (Molecular Devices, Sunnyvale, Calif.). Using the instrument in kinetic mode in which each well was read every 2 sec over a total collection time of 50 sec fluorescence was measured using an excitation wavelength 494 nm and a detection wavelength of 516 nm. A normalized fluorescence value for each well was calculated using the following procedure.

GABAB receptor, sequence (Q9UBS5 20-961): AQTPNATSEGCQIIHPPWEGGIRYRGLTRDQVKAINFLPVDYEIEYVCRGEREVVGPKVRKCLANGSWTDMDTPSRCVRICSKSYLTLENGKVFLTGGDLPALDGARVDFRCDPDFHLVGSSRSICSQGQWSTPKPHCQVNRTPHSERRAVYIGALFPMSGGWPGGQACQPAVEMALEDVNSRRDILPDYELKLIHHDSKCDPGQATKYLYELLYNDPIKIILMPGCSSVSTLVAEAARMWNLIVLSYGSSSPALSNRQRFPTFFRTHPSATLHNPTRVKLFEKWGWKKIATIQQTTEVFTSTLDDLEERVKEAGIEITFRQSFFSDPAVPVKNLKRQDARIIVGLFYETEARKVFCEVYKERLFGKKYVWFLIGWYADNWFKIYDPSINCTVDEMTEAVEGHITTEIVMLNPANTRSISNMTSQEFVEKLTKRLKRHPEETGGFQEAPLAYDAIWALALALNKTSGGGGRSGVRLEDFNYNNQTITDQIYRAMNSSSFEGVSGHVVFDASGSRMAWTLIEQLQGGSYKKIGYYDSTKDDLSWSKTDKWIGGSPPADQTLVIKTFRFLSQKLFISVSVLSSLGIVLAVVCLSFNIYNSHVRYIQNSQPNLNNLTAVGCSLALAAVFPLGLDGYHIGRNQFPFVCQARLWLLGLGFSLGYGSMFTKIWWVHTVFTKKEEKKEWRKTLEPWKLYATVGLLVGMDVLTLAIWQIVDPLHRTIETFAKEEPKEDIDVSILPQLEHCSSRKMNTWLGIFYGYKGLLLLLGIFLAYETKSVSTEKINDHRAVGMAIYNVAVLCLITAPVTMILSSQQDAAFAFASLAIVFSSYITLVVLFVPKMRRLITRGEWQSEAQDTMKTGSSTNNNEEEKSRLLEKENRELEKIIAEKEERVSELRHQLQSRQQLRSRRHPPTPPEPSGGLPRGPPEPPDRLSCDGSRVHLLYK
GABAB receptor, sequence (O75899 42-941 partner): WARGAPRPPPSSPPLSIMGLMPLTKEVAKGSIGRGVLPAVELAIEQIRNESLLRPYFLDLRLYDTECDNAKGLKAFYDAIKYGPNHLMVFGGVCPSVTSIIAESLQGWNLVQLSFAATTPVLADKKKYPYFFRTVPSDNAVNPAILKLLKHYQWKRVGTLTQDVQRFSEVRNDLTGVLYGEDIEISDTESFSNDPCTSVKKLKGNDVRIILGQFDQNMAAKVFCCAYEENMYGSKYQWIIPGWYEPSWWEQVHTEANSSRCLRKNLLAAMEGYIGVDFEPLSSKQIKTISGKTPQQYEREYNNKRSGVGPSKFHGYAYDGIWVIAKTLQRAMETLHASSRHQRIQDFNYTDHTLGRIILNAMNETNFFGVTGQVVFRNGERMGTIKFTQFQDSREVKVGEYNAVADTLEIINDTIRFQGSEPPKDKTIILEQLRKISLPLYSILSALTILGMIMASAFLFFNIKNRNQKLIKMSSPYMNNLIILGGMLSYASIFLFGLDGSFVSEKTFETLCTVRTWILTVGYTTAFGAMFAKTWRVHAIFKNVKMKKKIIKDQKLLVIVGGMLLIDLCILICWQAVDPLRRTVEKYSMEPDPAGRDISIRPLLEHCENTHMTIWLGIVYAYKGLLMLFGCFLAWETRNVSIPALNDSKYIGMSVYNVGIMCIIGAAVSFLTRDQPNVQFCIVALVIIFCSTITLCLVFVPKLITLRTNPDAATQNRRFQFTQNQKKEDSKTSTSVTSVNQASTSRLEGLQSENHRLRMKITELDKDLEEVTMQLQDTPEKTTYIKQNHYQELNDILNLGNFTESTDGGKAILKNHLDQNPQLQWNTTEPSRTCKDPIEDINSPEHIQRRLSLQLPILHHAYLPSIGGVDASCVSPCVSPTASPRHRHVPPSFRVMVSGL

Row | Structure (SMILES) | GABAB receptor agonist or partial agonist activity
1 | Cl.NC[C@H](CC(=O)O)c1ccc(Cl)c(-c2ccccc2C(=O)O)c1 [2-{5-[(1R)-2-amino-1-(carboxymethyl)ethyl]-2-chlorophenyl}benzoic acid hydrochloride] | agonist or partial agonist activity
2 | Cl.NC[C@H](CC(=O)O)c1ccc(Cl)c(/C=C/c2cccc(C(=O)O)c2)c1 [3-((1E)-2-{5-[(1R)-2-amino-1-(carboxymethyl)ethyl]-2-chlorophenyl}vinyl)benzoic acid hydrochloride] | agonist or partial agonist activity
3 | Cl.NC[C@H](CC(=O)O)c1ccc(Cl)c(OCc2cccc(C(=O)O)c2)c1 [3-({5-[(1R)-2-amino-1-(carboxymethyl)ethyl]-2-chlorophenoxy}methyl)benzoic acid hydrochloride] | agonist or partial agonist activity
4 | Cl.NC[C@H](CC(=O)O)c1ccc(Cl)cc1/C=C/c1ccccc1 [3-[2-((1E)-2-phenylvinyl)-4-chlorophenyl](3R)-4-aminobutanoic acid hydrochloride] | agonist or partial agonist activity
5 | Cl.NC[C@H](CC(=O)O)c1ccc(Cl)c(/C=C/c2ccccn2)c1 [3-[3-((1E)-2-(2-pyridyl)vinyl)-4-chlorophenyl](3R)-4-aminobutanoic acid hydrochloride] | agonist or partial agonist activity
6 | Cl.NC[C@H](CC(=O)O)c1ccc(Cl)c(NCc2cccc(C(=O)O)c2)c1 [3-[({5-[(1R)-2-amino-1-(carboxymethyl)ethyl]-2-chlorophenyl}amino)methyl]benzoic acid hydrochloride] | agonist or partial agonist activity
7 | Cl.NC[C@H](CC(=O)O)c1ccc(Cl)cc1-c1cccc(C(=O)O)c1 [3-{2-[(1R)-2-amino-1-(carboxymethyl)ethyl]-5-chlorophenyl}benzoic acid hydrochloride] | agonist or partial agonist activity
8 | Cl.N#Cc1ccc(C(=O)O)cc1-c1cc([C@H](CN)CC(=O)O)ccc1Cl [3-{5-[(1R)-2-amino-1-(carboxymethyl)ethyl]-2-chlorophenyl}-4-cyanobenzoic acid hydrochloride] | agonist or partial agonist activity
9 | Cc1ccc(C(=O)O)cc1-c1cc([C@H](CN)CC(=O)O)ccc1Cl.Cl [3-{5-[(1R)-2-amino-1-(carboxymethyl)ethyl]-2-chlorophenyl}-4-methylbenzoic acid hydrochloride] | agonist or partial agonist activity
10 | Cl.NC[C@H](CC(=O)O)c1ccc(Cl)c(-c2cnccc2C(=O)O)c1 [3-{5-[(1R)-2-amino-1-(carboxymethyl)ethyl]-2-chlorophenyl}pyridine-4-carboxylic acid hydrochloride] | agonist or partial agonist activity
11 | NC[C@H](CC(=O)O)c1cc(Br)c(Cl)c(-c2cc(Cl)cc(C(=O)O)c2)c1 [3-{5-[(1R)-2-amino-1-(carboxymethyl)ethyl]-3-bromo-2-chlorophenyl}-5-chlorobenzoic acid] | agonist or partial agonist activity
12 | Cl.NC[C@H](CC(=O)O)c1cc(Br)c(Cl)c(-c2cccc(C(=O)O)c2)c1 [3-{5-[(1R)-2-amino-1-(carboxymethyl)ethyl]-3-bromo-2-chlorophenyl}benzoic acid hydrochloride] | agonist or partial agonist activity
13 | Cl.NC[C@@H](CC(=O)O)c1ccc(Cl)c(-c2cccc(C(=O)O)c2)c1 [3-{5-[(1S)-2-amino-1-(carboxymethyl)ethyl]-2-chlorophenyl}benzoic acid hydrochloride] | agonist or partial agonist activity
14 | Cl.NC[C@H](CC(=O)O)c1ccc(Cl)c(Cc2ccc(C(=O)O)cc2)c1 [4-({5-[(1R)-2-amino-1-(carboxymethyl)ethyl]-2-chlorophenyl}methyl)benzoic acid hydrochloride] | agonist or partial agonist activity
15 | COc1cncc(-c2cc(C(CN)CC(=O)O)ccc2Cl)c1.Cl (stereo not drawn) [4-amino-3-[4-chloro-3-(5-methoxy(3-pyridyl))phenyl]butanoic acid hydrochloride] | agonist or partial agonist activity
16 | NC[C@H](CC(=O)O)c1ccc(Cl)c(CCCC(=O)O)c1 [4-{5-[(1R)-2-amino-1-(carboxymethyl)ethyl]-2-chlorophenyl}butanoic acid] | agonist or partial agonist activity
17 | Cl.NC[C@H](CC(=O)O)c1ccc(Cl)c(-c2ccc(C(=O)O)nc2)c1 [5-{5-[(1R)-2-amino-1-(carboxymethyl)ethyl]-2-chlorophenyl}pyridine-2-carboxylic acid hydrochloride] | agonist or partial agonist activity
18 | Cl.NC[C@H](CC(=O)O)c1ccc(Cl)c(-c2cccc(C(=O)O)n2)c1 [6-{5-[(1R)-2-amino-1-(carboxymethyl)ethyl]-2-chlorophenyl}pyridine-2-carboxylic acid hydrochloride] | agonist or partial agonist activity
19 | Cl.NC[C@H](CC(=O)O)c1ccc(Cl)c(-c2cncc3ccccc23)c1 [(3R)-4-amino-3-(4-chloro-3-(4-isoquinolyl)phenyl)butanoic acid hydrochloride] | agonist or partial agonist activity
20 | Cl.NC[C@H](CC(=O)O)c1ccc(Cl)c(-c2ccncc2)c1 [(3R)-4-amino-3-(4-chloro-3-(4-pyridyl)phenyl)butanoic acid hydrochloride] | agonist or partial agonist activity
21 | Cl.NC[C@H](CC(=O)O)c1ccc(Cl)c(Oc2ccncc2)c1 [(3R)-4-amino-3-(4-chloro-3-(4-pyridyloxy)phenyl)butanoic acid hydrochloride] | agonist or partial agonist activity
22 | Cl.N#Cc1ccccc1CNc1cc([C@H](CN)CC(=O)O)ccc1Cl [(3R)-4-amino-3-(4-chloro-3-{[(2-cyanophenyl)methyl]amino}phenyl)butanoic acid hydrochloride] | agonist or partial agonist activity
23 | Cl.NC[C@H](CC(=O)O)c1ccc(Cl)c(NCc2ccncc2Cl)c1 [(3R)-4-amino-3-(4-chloro-3-{[(3-chloro(4-pyridyl))methyl]amino}phenyl)butanoic acid hydrochloride] | agonist or partial agonist activity
24 | Cl.NC[C@H](CC(=O)O)c1ccc(Cl)c(NCc2cccc(F)c2)c1 [(3R)-4-amino-3-(4-chloro-3-{[(3-fluorophenyl)methyl]amino}phenyl)butanoic acid hydrochloride] | agonist or partial agonist activity
25 | Cl.NC[C@H](CC(=O)O)c1ccc(Cl)c(NCc2ccc(F)cc2)c1 [(3R)-4-amino-3-(4-chloro-3-{[(4-fluorophenyl)methyl]amino}phenyl)butanoic acid hydrochloride] | agonist or partial agonist activity
26 | Cc1ccc(CNc2cc([C@H](CN)CC(=O)O)ccc2Cl)cc1.Cl [(3R)-4-amino-3-(4-chloro-3-{[(4-methylphenyl)methyl]amino}phenyl)butanoic acid hydrochloride] | agonist or partial agonist activity
27 | Cl.NC[C@H](CC(=O)O)c1ccc(Cl)c(NCc2ccc([N+](=O)[O-])cc2)c1 [(3R)-4-amino-3-(4-chloro-3-{[(4-nitrophenyl)methyl]amino}phenyl)butanoic acid hydrochloride] | agonist or partial agonist activity
